Results as given in ChEMBL document CHEMBL3400123, “Discovery of 1,3-dihydro-2,1,3-benzothiadiazole 2,2-dioxide analogs as new RORC modulators” (Bioorg Med Chem Lett, 2015).
In brackets after ≈: the same amount, converted by molar mass.

Experiment: Solubility in pH 6.8 buffer by high throughput solubility assay
Assay type: physicochemical

solubility [µg/mL] | SMILES
0.45 (≈ 0.796 µM) | O=C(CCCN1c2ccccc2N(Cc2ccc(C(O)(C(F)(F)F)C(F)(F)F)cc2)S1(=O)=O)N1CCCC1
0.6 (≈ 1.28 µM) | CCC(CC)c1ccc(CN2c3ccccc3N(CCCC(=O)N3CCCC3)S2(=O)=O)cc1
5.7 (≈ 11.5 µM) | O=C(CCCN1c2ccccc2N(Cc2ccc(C(O)C(F)(F)F)cc2)S1(=O)=O)N1CCCC1 (stereo not drawn)
